# Test: Stability in rat plasma, urine, feces and 12 tissues (LC–MS/MS validation)
# Format: in vitro ADME
# Details: for Stability Freeze-thaw: 4 cycles; for Stability Autosampler: 4 °C for 24 h; for Stability Long-term: -70 °C for two weeks; for Stability Short-term: room temperature for 4 h
# Experimental: Analytical validation data including stability and process efficiency are shown in Supplementary Tables 3 and 4. […] The process efficiency in each biological matrix is generally consistent (Supplementary Table 4). […] For plasma samples, the dilution integrity was evaluated for a 10- and 20-fold dilution of QC samples at 40,000 ng/mL, which was two times higher than ULOQ, with blank matrix. The accuracy for dilution integrity was 105.56% and 102.21%, while precision was 1.03% and 2.39% for tenfold and 20-fold dilution, respectively (n = 3, each).
# Supplementary Table 3. Stability (%) of 175Lu-DOTA-PSMA-GUL in the rat plasma, urine, feces,
# Matrix Concentration Short-term Long-term Freeze-thaw Autosampler
# (ng/mL) (n=4) (n=4) (n=4) (n=4)
# [1] = rat small intestine, 4,000 ng/mL
structure (smiles),measurement,setting,value
"O=C([O-])CN1CCN(CC(=O)[O-])CCN(CC(=O)[O-])C(Cc2ccc(NC(=S)NCCCC[C@H](NC(=O)N[C@@H](CCC(=O)O)C(=O)O)C(=O)O)cc2)CN(CC(=O)[O-])CC1.[Lu+3] (stereo partly drawn) [^175Lu-DOTA-PSMA-GUL, Lutetium labeled-1,4,7,10-tetraazacyclododecane-1,4,7,10-tetraacetic acid (DOTA)-PSMA-GUL]",Stability Freeze-thaw,"rat brain, 400 ng/mL",96.03 ± 3.73%
same,Stability Autosampler,"rat brain, 400 ng/mL",96.57 ± 0.76%
same,Stability Long-term,"rat brain, 400 ng/mL",94.77 ± 3.27%
same,Stability Short-term,"rat brain, 400 ng/mL",92.98 ± 2.86%
same,Stability Freeze-thaw,"rat brain, 4,000 ng/mL",102.05 ± 3.19%
same,Stability Autosampler,"rat brain, 4,000 ng/mL",90.60 ± 1.22%
same,Stability Long-term,"rat brain, 4,000 ng/mL",95.22 ± 2.73%
same,Stability Short-term,"rat brain, 4,000 ng/mL",98.51 ± 2.55%
same,Stability Freeze-thaw,"rat fat, 400 ng/mL",91.54 ± 1.36%
same,Stability Autosampler,"rat fat, 400 ng/mL",95.57 ± 4.47%
same,Stability Long-term,"rat fat, 400 ng/mL",96.21 ± 4.47%
same,Stability Short-term,"rat fat, 400 ng/mL",98.86 ± 3.38%
same,Stability Freeze-thaw,"rat fat, 4,000 ng/mL",99.64 ± 2.85%
same,Stability Autosampler,"rat fat, 4,000 ng/mL",95.05 ± 0.70%
same,Stability Long-term,"rat fat, 4,000 ng/mL",94.41 ± 3.10%
same,Stability Short-term,"rat fat, 4,000 ng/mL",96.74 ± 3.52%
same,Stability Freeze-thaw,"rat feces, 400 ng/mL",104.54 ± 6.86%
same,Stability Autosampler,"rat feces, 400 ng/mL",97.85 ± 3.82%
same,Stability Long-term,"rat feces, 400 ng/mL",103.52 ± 1.25%
same,Stability Short-term,"rat feces, 400 ng/mL",90.69 ± 6.38%
same,Stability Freeze-thaw,"rat feces, 4,000 ng/mL",105.65 ± 2.20%
same,Stability Autosampler,"rat feces, 4,000 ng/mL",104.03 ± 2.53%
same,Stability Long-term,"rat feces, 4,000 ng/mL",101.50 ± 1.39%
same,Stability Short-term,"rat feces, 4,000 ng/mL",104.76 ± 2.40%
same,Stability Autosampler,"rat heart, 400 ng/mL",98.75 ± 4.29%
same,Stability Long-term,"rat heart, 400 ng/mL",93.97 ± 1.45%
same,Stability Short-term,"rat heart, 400 ng/mL",95.08 ± 10.83%
same,Stability Freeze-thaw,"rat heart, 4,000 ng/mL",97.19 ± 8.21%
same,Stability Autosampler,"rat heart, 4,000 ng/mL",92.56 ± 3.26%
same,Stability Long-term,"rat heart, 4,000 ng/mL",93.50 ± 2.78%
same,Stability Short-term,"rat heart, 4,000 ng/mL",91.74 ± 0.93%
same,Stability Freeze-thaw,"rat kidney, 400 ng/mL",94.83 ± 2.49%
same,Stability Autosampler,"rat kidney, 400 ng/mL",95.72 ± 4.19%
same,Stability Long-term,"rat kidney, 400 ng/mL",95.92 ± 2.97%
same,Stability Short-term,"rat kidney, 400 ng/mL",95.45 ± 3.51%
same,Stability Freeze-thaw,"rat kidney, 4,000 ng/mL",94.30 ± 1.02%
same,Stability Autosampler,"rat kidney, 4,000 ng/mL",97.98 ± 2.82%
same,Stability Long-term,"rat kidney, 4,000 ng/mL",94.61 ± 2.50%
same,Stability Short-term,"rat kidney, 4,000 ng/mL",98.14 ± 3.63%
same,Stability Freeze-thaw,"rat liver, 400 ng/mL",95.93 ± 3.91%
same,Stability Autosampler,"rat liver, 400 ng/mL",97.39 ± 3.47%
same,Stability Long-term,"rat liver, 400 ng/mL",97.86 ± 1.87%
same,Stability Short-term,"rat liver, 400 ng/mL",98.94 ± 5.66%
same,Stability Freeze-thaw,"rat liver, 4,000 ng/mL",91.72 ± 2.23%
same,Stability Autosampler,"rat liver, 4,000 ng/mL",92.47 ± 2.32%
same,Stability Long-term,"rat liver, 4,000 ng/mL",91.83 ± 1.56%
same,Stability Short-term,"rat liver, 4,000 ng/mL",91.39 ± 2.47%
same,Stability Freeze-thaw,"rat lung, 400 ng/mL",96.40 ± 1.10%
same,Stability Autosampler,"rat lung, 400 ng/mL",98.84 ± 7.51%
same,Stability Long-term,"rat lung, 400 ng/mL",99.08 ± 2.59%
same,Stability Short-term,"rat lung, 400 ng/mL",98.55 ± 4.32%
same,Stability Freeze-thaw,"rat lung, 4,000 ng/mL",97.55 ± 0.70%
same,Stability Autosampler,"rat lung, 4,000 ng/mL",102.00 ± 4.06%
same,Stability Long-term,"rat lung, 4,000 ng/mL",95.79 ± 1.75%
same,Stability Short-term,"rat lung, 4,000 ng/mL",96.87 ± 1.97%
same,Stability Freeze-thaw,"rat muscle, 400 ng/mL",101.47 ± 2.25%
same,Stability Autosampler,"rat muscle, 400 ng/mL",94.93 ± 2.73%
same,Stability Long-term,"rat muscle, 400 ng/mL",99.56 ± 2.47%
same,Stability Short-term,"rat muscle, 400 ng/mL",100.99 ± 2.76%
same,Stability Freeze-thaw,"rat muscle, 4,000 ng/mL",94.67 ± 0.44%
same,Stability Autosampler,"rat muscle, 4,000 ng/mL",98.62 ± 2.06%
same,Stability Long-term,"rat muscle, 4,000 ng/mL",99.74 ± 4.41%
same,Stability Short-term,"rat muscle, 4,000 ng/mL",99.13 ± 2.50%
same,Stability Freeze-thaw,"rat plasma, 80 ng/mL",102.92 ± 2.77%
same,Stability Autosampler,"rat plasma, 80 ng/mL",97.69 ± 3.09%
same,Stability Long-term,"rat plasma, 80 ng/mL",100.61 ± 2.11%
same,Stability Short-term,"rat plasma, 80 ng/mL",106.18 ± 0.41%
same,Stability Freeze-thaw,"rat plasma, 16,000 ng/mL",98.68 ± 1.21%
same,Stability Autosampler,"rat plasma, 16,000 ng/mL",102.82 ± 1.73%
same,Stability Long-term,"rat plasma, 16,000 ng/mL",99.20 ± 0.51%
same,Stability Short-term,"rat plasma, 16,000 ng/mL",101.14 ± 2.43%
same,Stability Freeze-thaw,"rat prostate, 400 ng/mL",95.17 ± 3.44%
same,Stability Autosampler,"rat prostate, 400 ng/mL",97.82 ± 2.46%
same,Stability Long-term,"rat prostate, 400 ng/mL",95.50 ± 3.57%
same,Stability Short-term,"rat prostate, 400 ng/mL",95.76 ± 1.48%
same,Stability Freeze-thaw,"rat prostate, 4,000 ng/mL",99.85 ± 2.74%
same,Stability Autosampler,"rat prostate, 4,000 ng/mL",96.30 ± 0.83%
same,Stability Long-term,"rat prostate, 4,000 ng/mL",97.12 ± 3.90%
same,Stability Short-term,"rat prostate, 4,000 ng/mL",99.30 ± 3.24%
same,Stability Freeze-thaw,"rat small intestine, 400 ng/mL",99.15 ± 6.00%
same,Stability Autosampler,"rat small intestine, 400 ng/mL",98.68 ± 2.52%
same,Stability Long-term,"rat small intestine, 400 ng/mL",98.80 ± 2.76%
same,Stability Short-term,"rat small intestine, 400 ng/mL",99.17 ± 2.35%
same,Stability Freeze-thaw,[1],100.54 ± 2.33%
same,Stability Autosampler,[1],104.13 ± 2.24%
same,Stability Long-term,[1],103.65 ± 4.10%
same,Stability Short-term,[1],102.12 ± 2.51%
same,Stability Freeze-thaw,"rat spleen, 400 ng/mL",98.46 ± 3.74%
same,Stability Autosampler,"rat spleen, 400 ng/mL",102.59 ± 1.80%
same,Stability Long-term,"rat spleen, 400 ng/mL",97.10 ± 3.45%
same,Stability Short-term,"rat spleen, 400 ng/mL",101.61 ± 2.41%
same,Stability Freeze-thaw,"rat spleen, 4,000 ng/mL",104.53 ± 2.39%
same,Stability Autosampler,"rat spleen, 4,000 ng/mL",102.93 ± 2.02%
same,Stability Long-term,"rat spleen, 4,000 ng/mL",106.40 ± 3.85%
same,Stability Short-term,"rat spleen, 4,000 ng/mL",104.24 ± 4.36%
same,Stability Freeze-thaw,"rat stomach, 400 ng/mL",97.59 ± 1.68%
same,Stability Autosampler,"rat stomach, 400 ng/mL",100.00 ± 4.55%
same,Stability Long-term,"rat stomach, 400 ng/mL",99.72 ± 2.41%
same,Stability Short-term,"rat stomach, 400 ng/mL",98.96 ± 4.28%
same,Stability Freeze-thaw,"rat stomach, 4,000 ng/mL",92.47 ± 1.38%
same,Stability Autosampler,"rat stomach, 4,000 ng/mL",93.61 ± 2.79%
same,Stability Long-term,"rat stomach, 4,000 ng/mL",94.79 ± 3.41%
same,Stability Short-term,"rat stomach, 4,000 ng/mL",96.98 ± 3.91%
same,Stability Freeze-thaw,"rat testis, 400 ng/mL",107.18 ± 0.85%
same,Stability Autosampler,"rat testis, 400 ng/mL",101.68 ± 6.54%
same,Stability Long-term,"rat testis, 400 ng/mL",103.74 ± 3.80%
same,Stability Short-term,"rat testis, 400 ng/mL",100.51 ± 3.98%
same,Stability Freeze-thaw,"rat testis, 4,000 ng/mL",99.52 ± 0.96%
same,Stability Autosampler,"rat testis, 4,000 ng/mL",97.56 ± 4.96%
same,Stability Long-term,"rat testis, 4,000 ng/mL",94.96 ± 4.89%
same,Stability Short-term,"rat testis, 4,000 ng/mL",101.72 ± 1.48%
same,Stability Freeze-thaw,"rat urine, 400 ng/mL",105.67 ± 4.65%
same,Stability Autosampler,"rat urine, 400 ng/mL",94.03 ± 2.84%
same,Stability Long-term,"rat urine, 400 ng/mL",98.36 ± 1.67%
same,Stability Short-term,"rat urine, 400 ng/mL",91.67 ± 2.58%
same,Stability Freeze-thaw,"rat urine, 16,000 ng/mL",92.41 ± 1.12%
same,Stability Autosampler,"rat urine, 16,000 ng/mL",104.69 ± 2.03%
same,Stability Long-term,"rat urine, 16,000 ng/mL",100.28 ± 1.39%
same,Stability Short-term,"rat urine, 16,000 ng/mL",106.46 ± 1.17%
same,stability in each biological matrix,"short-term, long-term, freeze–thaw and autosampler storage conditions",stable
